Laboratory results reported in patent EP4707280A1, “1,4-CINEOLE DERIVATIVE AND INTERMEDIATE THEREOF, HERBICIDE CONTAINING SAID DERIVATIVE AS ACTIVE INGREDIENT, METHOD FOR USING HERBICIDE, AND METHOD FOR PREPARING AGROCHEMICAL COMPOSITION” (HOKKO CHEMICAL INDUSTRY CO., LTD., priority 2023, dated 2024).

Key:
Type in all cases: in vivo
[1] = system: Echinochloa crus-galli var. formosensis; assay: Test Example 1: herbicidal effect test by soil application in paddy rice; conditions: Echinochloa crus-galli, soil, 336 h; 120 g active ingredient per 10 ares; applied immediately after sowing, flooded pots; 14 days after application; read-out: weed inhibition rate
Outline: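 Pre-emergence paddy treatment: diluted emulsifiable concentrate applied by dropper at 120 g a.i./10 ares immediately after sowing. Seeds (30 per species, 0–1 cm deep) in fertilized, puddled paddy soil kept under ~3 cm flood in a glass greenhouse.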

[2] = system: Echinochloa crus-galli var. formosensis; assay: Test Example 2: herbicidal effect test by application during growth period of paddy rice; conditions: Echinochloa crus-galli; 120 g per 10 ares; applied seven days after sowing, flooded pots; 14 days after application; read-out: weed inhibition rate
Outline: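 Weeds sown into puddled, flooded paddy soil received a post-emergence water application of emulsifiable concentrate at 120 g active ingredient per 10 ares, seven days after sowing. Herbicidal effect was rated 14 days later as inhibition (%).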

[3] = system: Digitaria ciliaris; assay: Test Example 3: herbicidal effect test by soil application in upland field; conditions: Digitaria ciliaris, 120 g per 10 ares, sprayed one day after sowing, 14 days after application, read-out: weed inhibition rate
Outline: (§1)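 Weed inhibition (%) was assessed 14 days after treatment, in duplicate per concentration group. Seeds had been mixed into the upper 1 cm of upland alluvial loam, and the soil surface was sprayed one day later with the diluted emulsifiable concentrate at 120 g active ingredient per 10 ares.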

[4] = system: Echinochloa crus-galli; assay: as above; conditions: Echinochloa crus-galli, 120 g per 10 ares, sprayed one day after sowing, 14 days after application, read-out: weed inhibition rate
Outline: as §1

[5] = system: Digitaria ciliaris; assay: Test Example 4: herbicidal effect test by stem and leaf treatment in upland field; conditions: Digitaria ciliaris; 120 g per 10 ares; sprayed seven days after sowing, upland soil; 14 days after application; read-out: weed inhibition rate
[6] = system: Echinochloa crus-galli; assay: as above; conditions: Echinochloa crus-galli; 120 g per 10 ares; sprayed seven days after sowing, upland soil; 14 days after application; read-out: weed inhibition rate
[7] = system: Echinochloa crus-galli var. formosensis; assay: Test Example 5: herbicidal effect test by soil application in paddy rice (low dose); conditions: Echinochloa crus-galli, soil, 336 h; 7.5 g per 10 ares; applied immediately after sowing, flooded pots; 14 days after application; read-out: weed inhibition rate
Method: (§2) The present test was conducted in duplicate for each chemical concentration group, and the weed inhibition rate (%) was determined 14 days after chemical application using the following formula (Math. 1). [formula]
Wagner pots with an area of […] were filled with paddy soil, followed by addition of water and incorporation of chemical fertilizer (N:P:K = 16:16:16), after which puddling was performed. After that, seeds of Echinochloa crus-galli var. formosensis, broad-leaved weeds (Monochoria vaginalis), and Scirpus juncoides were sown at a depth of 0 cm to 1 cm, 30 seeds each. Immediately after sowing, the pots were flooded and a water depth of approximately 3 cm was maintained. Subsequent management was conducted in a glass greenhouse. Immediately thereafter, an emulsifiable concentrate prepared according to Formulation Example 5 using the compound shown below was diluted with water, and a specified amount of the diluted solution was applied by dropper. The amount of the active ingredient to be applied was equivalent to 7.5 g per 10 ares. […]

[8] = system: Echinochloa crus-galli var. formosensis; assay: Test Example 6: herbicidal effect test by application during growth period of paddy rice (low dose); conditions: Echinochloa crus-galli; 7.5 g per 10 ares; applied seven days after sowing, flooded pots; 14 days after application; read-out: weed inhibition rate
Method: as §2
Wagner pots with an area of […] were filled with paddy soil, followed by addition of water and incorporation of chemical fertilizer (N:P:K = 16:16:16), after which puddling was performed. After that, seeds of Echinochloa crus-galli var. formosensis, broad-leaved weeds (Monochoria vaginalis), and Scirpus juncoides were sown at a depth of 0 cm to 1 cm, 30 seeds each. Immediately after sowing, the pots were flooded and a water depth of approximately 3 cm was maintained. Subsequent management was conducted in a glass greenhouse. Seven days after sowing, an emulsifiable concentrate prepared according to Formulation Example 5 using the compound shown below was diluted with water, and a specified amount of the diluted solution was applied by dropper. The amount of the active ingredient to be applied was equivalent to 7.5 g per 10 ares. The test was conducted in duplicate for each chemical concentration group, and the herbicidal effect was evaluated 14 days after chemical application using the same criteria as in Test Example 1.

[9] = system: Digitaria ciliaris; assay: Test Example 7: herbicidal effect test by soil application in upland field (low dose); conditions: Digitaria ciliaris, 7.5 g per 10 ares, sprayed one day after sowing, 14 days after application, read-out: weed inhibition rate
Method: as §2
(§3) Pots with an area of 36 cm^2 were filled with upland soil (alluvial loam), twenty seeds each of weeds of Digitaria ciliaris, and Echinochloa crus-galli were uniformly mixed with the top 1 cm layer of soil and the surface was lightly pressed down. One day after sowing, an emulsifiable concentrate prepared according to Formulation Example 5 using the compound shown below was diluted with water, and the diluted solution was sprayed onto the soil surface at a rate of 100 liters per 10 ares. The amount of the active ingredient to be applied was equivalent to 7.5 g per 10 ares. Fourteen days after chemical application, the herbicidal effect was evaluated according to the same criteria as in Test Example 1.

[10] = system: Echinochloa crus-galli; assay: as above; conditions: Echinochloa crus-galli, 7.5 g per 10 ares, sprayed one day after sowing, 14 days after application, read-out: weed inhibition rate
Method: as §2, §3

[11] = system: Digitaria ciliaris; assay: Test Example 8: herbicidal effect test by stem and leaf treatment in upland field (low dose); conditions: Digitaria ciliaris; 7.5 g per 10 ares; sprayed seven days after sowing, upland soil; 14 days after application; read-out: weed inhibition rate
Method: as §2
as §3, with “Seven days” for “One day”

[12] = system: Echinochloa crus-galli; assay: as above; conditions: Echinochloa crus-galli; 7.5 g per 10 ares; sprayed seven days after sowing, upland soil; 14 days after application; read-out: weed inhibition rate
Method: as §2
as §3, with “Seven days” for “One day”

CC(C)C12CC(OCc3c(F)cccc3Cl)C(C)(CC1Br)O2 (centres unmarked) [1-1381, 5-bromo-2-[(2-chloro-6-fluorophenyl)methoxy]-1-methyl-4-isopropyl-7-oxabicyclo[2.2.1]heptane]
≥ 80%: pest or weed control at 1200 g/ha [1] | inhibition at 1200 g/ha [2] | inhibition at 1200 g/ha [3] | inhibition at 1200 g/ha [4] | inhibition at 1200 g/ha [5] | inhibition at 1200 g/ha [6] | inhibition at 75 g/ha [7] | inhibition at 75 g/ha [8] | inhibition at 75 g/ha [9] | inhibition at 75 g/ha [10] | inhibition at 75 g/ha [11] | inhibition at 75 g/ha [12]

CC(C)C12CC(OCc3ccccc3Br)C(C)(CC1Br)O2 (centres unmarked) [1-1361, 5-bromo-2-[(2-bromophenyl)methoxy]-1-methyl-4-isopropyl-7-oxabicyclo[2.2.1]heptane]
≥ 80%: pest or weed control at 1200 g/ha [1] | inhibition at 1200 g/ha [2] | inhibition at 1200 g/ha [3] | inhibition at 1200 g/ha [4] | inhibition at 1200 g/ha [5] | inhibition at 1200 g/ha [6] | inhibition at 75 g/ha [7] | inhibition at 75 g/ha [8] | inhibition at 75 g/ha [9] | inhibition at 75 g/ha [10] | inhibition at 75 g/ha [11] | inhibition at 75 g/ha [12]

CC(C)C12CC(OCc3ccc(F)cc3)C(C)(CC1Br)O2 (centres unmarked) [1-1357, 5-bromo-2-[(4-fluorophenyl)methoxy]-1-methyl-4-isopropyl-7-oxabicyclo[2.2.1]heptane]
≥ 80%: pest or weed control at 1200 g/ha [1] | inhibition at 1200 g/ha [2] | inhibition at 1200 g/ha [3] | inhibition at 1200 g/ha [4] | inhibition at 1200 g/ha [5] | inhibition at 1200 g/ha [6] | inhibition at 75 g/ha [7] | inhibition at 75 g/ha [8] | inhibition at 75 g/ha [9] | inhibition at 75 g/ha [10] | inhibition at 75 g/ha [11] | inhibition at 75 g/ha [12]

COc1ccccc1CO[C@@H]1C[C@]2(C(C)C)O[C@@]1(C)C[C@@H]2Br [1-18, (1S,2R,4R,5S)-5-bromo-2-[(2-methoxyphenyl)methoxy]-1-methyl-4-isopropyl-7-oxabicyclo[2.2.1]heptane]
≥ 80%: pest or weed control at 1200 g/ha [1] | inhibition at 1200 g/ha [2] | inhibition at 1200 g/ha [5] | inhibition at 1200 g/ha [6] | inhibition at 75 g/ha [7] | inhibition at 75 g/ha [8] | inhibition at 75 g/ha [11] | inhibition at 75 g/ha [12]

CC(C)C12CC(OCc3ccccc3Cl)C(C)(CC1Br)O2 (centres unmarked) [1-1358, 5-bromo-2-[(2-chlorophenyl)methoxy]-1-methyl-4-isopropyl-7-oxabicyclo[2.2.1]heptane]
≥ 80%: pest or weed control at 1200 g/ha [1] | inhibition at 1200 g/ha [2] | inhibition at 1200 g/ha [3] | inhibition at 1200 g/ha [4] | inhibition at 1200 g/ha [5] | inhibition at 1200 g/ha [6] | inhibition at 75 g/ha [7] | inhibition at 75 g/ha [8] | inhibition at 75 g/ha [9] | inhibition at 75 g/ha [10] | inhibition at 75 g/ha [11] | inhibition at 75 g/ha [12]

CC(C)[C@]12C[C@@H](OCc3ccccn3)[C@](C)(C[C@@H]1Br)O2 [1-718, 2-[[(1S,2R,4R,5S)-5-bromo-1-methyl-4-isopropyl-7-oxabicyclo[2.2.1]heptan-2-yl]oxymethyl]pyridine]
≥ 80%: pest or weed control at 1200 g/ha [1] | inhibition at 1200 g/ha [2] | inhibition at 1200 g/ha [3] | inhibition at 1200 g/ha [4] | inhibition at 1200 g/ha [5] | inhibition at 1200 g/ha [6] | inhibition at 75 g/ha [7] | inhibition at 75 g/ha [8] | inhibition at 75 g/ha [9] | inhibition at 75 g/ha [10] | inhibition at 75 g/ha [11] | inhibition at 75 g/ha [12]

CC(C)C12CC(OCc3c(F)cccc3F)C(C)(CC1Br)O2 (centres unmarked) [1-1379, 5-bromo-2-[(2,6-difluorophenyl)methoxy]-1-methyl-4-isopropyl-7-oxabicyclo[2.2.1]heptane]
≥ 80%: pest or weed control at 1200 g/ha [1] | inhibition at 1200 g/ha [2] | inhibition at 1200 g/ha [3] | inhibition at 1200 g/ha [4] | inhibition at 1200 g/ha [5] | inhibition at 1200 g/ha [6] | inhibition at 75 g/ha [7] | inhibition at 75 g/ha [8] | inhibition at 75 g/ha [9] | inhibition at 75 g/ha [10] | inhibition at 75 g/ha [11] | inhibition at 75 g/ha [12]

CCc1ccccc1CO[C@@H]1C[C@]2(C(C)C)O[C@@]1(C)C[C@@H]2Br [1-682, (1S,2R,4R,5S)-5-bromo-2-[(2-ethylphenyl)methoxy]-1-methyl-4-isopropyl-7-oxabicyclo[2.2.1]heptane]
≥ 80%: pest or weed control at 1200 g/ha [1] | inhibition at 1200 g/ha [2] | inhibition at 1200 g/ha [3] | inhibition at 1200 g/ha [4] | inhibition at 1200 g/ha [5] | inhibition at 1200 g/ha [6] | inhibition at 75 g/ha [7] | inhibition at 75 g/ha [8] | inhibition at 75 g/ha [9] | inhibition at 75 g/ha [10] | inhibition at 75 g/ha [11] | inhibition at 75 g/ha [12]

COc1ccc(CO[C@@H]2C[C@]3(C(C)C)O[C@@]2(C)C[C@@H]3Br)cc1 [1-686, (1S,2R,4R,5S)-5-bromo-2-[(4-methoxyphenyl)methoxy]-1-methyl-4-isopropyl-7-oxabicyclo[2.2.1]heptane]
≥ 80%: inhibition at 1200 g/ha [5] | inhibition at 1200 g/ha [6] | inhibition at 75 g/ha [11] | inhibition at 75 g/ha [12]

CC(C)C12CC(OCc3c(F)cccc3Br)C(C)(CC1Br)O2 (centres unmarked) [1-1598, 5-bromo-2-[(2-bromo-6-fluorophenyl)methoxy]-1-methyl-4-isopropyl-7-oxabicyclo[2.2.1]heptane]
≥ 80%: pest or weed control at 1200 g/ha [1] | inhibition at 1200 g/ha [2] | inhibition at 1200 g/ha [3] | inhibition at 1200 g/ha [4] | inhibition at 1200 g/ha [6] | inhibition at 75 g/ha [7] | inhibition at 75 g/ha [8] | inhibition at 75 g/ha [9] | inhibition at 75 g/ha [10] | inhibition at 75 g/ha [11] | inhibition at 75 g/ha [12]
